The structures appear in SMILES notation. Where two headings read alike, the source gives them in different places.

The source of these data is article PMC12266748, “A Xanthine Derivative With Novel Heat Shock Protein 90‐Alpha Inhibitory and Senolytic Properties” (Aging Cell, 2025).

For this series, the system named is WI38 cells. In words: Dose-response curves on proliferating and replicative senescent WI38 (Trypan blue cell count). In kind it is cell-based. The note with it: for EC50: Homo sapiens, WI-38. From the text: IMR90 and WI38 lung fibroblasts were purchased from ECACC‐Merck. Human bone marrow (BM)‐derived mesenchymal stromal cells (MSCs) were purchased from Lonza. Human umbilical vein endothelial cells (HUVECs) are primary cells obtained from a pool of donors purchased from Clonetics (Lonza). Murine ear fibroblasts (MearFs) were obtained from C57BL/6J mice maintained in the INRCA “Specific Pathogen Free” (SPF) animal facility. MCF7 breast cancer cells were purchased from ATCC. For dose–response curves, IMR90 and WI38 were induced to senescence through replicative passages; MSCs, HUVECs, and MearFs senescence was induced with Doxorubicin; MCF7 senescence was induced with 4‐Hydroxytamoxifen (Lee et al. [2014]). The EC50 was calculated using GraphPad Prism 10 software. All treatment specifications are reported in the extended section.
Cell culture and treatment. IMR90 cells (Homo sapiens, fetal lung, fibroblast) and WI38 cells (Homo sapiens, fetal lung, fibroblast) were purchased from ECACC-Merck (Merck, Darmstadt, Germany) and cultured in MEM medium (Euroclone, Milano, Italy) supplemented with 1% L-Glutamine (Euroclone, Milano, Italy), 1% Penicillin-Streptomycin (Euroclone, Milano, Italy), and 10% Fetal Bovine Serum (FBS, Euroclone, Milano, Italy), at 37°C, 5% CO2. IMR90 cells with a population doubling (PD) from PD15 to PD23 were used; cells were considered incrementally senescent from passage PD19 to passage PD23. WI38 cells were used from PD26 to PD53. Cells were considered incrementally senescent from passage PD49 to passage PD53. For the compounds in vitro screening, IMR90 cells with passages from PD15 to PD23 were tested at increasing concentrations of 0.5 μM, 1 μM, 10 μM, and 25 μM over 24 and 48 h to evaluate the compounds' efficacy and cytotoxicity compared to the Vehicle (DMSO ≤ 0.1%). Cells were counted manually, in triplicate, using Trypan blue reagent (Euroclone) and disposable Bürker chambers. […] K5 dose-response proliferation curves were performed with compound K5 (Molport, SIA, Riga, Latvia) in concentrations 0.1, 0.5, 1, 5, 10, 50, 100, and 200 μM for 48 h. Cells were counted using a Trypan blue reagent and EVAplus cell counter. The EC50s were calculated by analyzing the data using GraphPad Prism 10 software.
MCF7 cell line (ATCC; HTB-22, Homo sapiens, breast cancer) was purchased from ATCC; cells were grown in MEM medium (Corning, New York, USA, #15-010-CVR) supplemented with 10% FBS (Gibco, Invitrogen, Carlsbad, CA, USA, #10270106), 1% glutamine (Corning #25005-CI), 1% penicillin and streptomycin (Corning #30002-CI). Cells were incubated at 37 °C with 5% CO2. Senescent status induction: MCF7 were plated 24 h before the treatment with 4-Hydroxytamoxifen (TAM) 10 μM to induce the senescence described by (Lee et al. 2014). Control cultures were treated with equal volumes of 75% ethanol as the vehicle. The treatment with TAM lasts 96 h, after which the cells have been washed and treated with the senolytic drugs K5 10 µM for another 96 h. The treatment with the senolytic compounds has been renewed at 48 h. Cell mortality and vitality curves after treatment with K5 (10 μM, orange) or Vehicle (DMSO, grey) were monitored using the Incucyte live-cell Analysis system (Sartorius, Goettingen, Germany). The estimated Senolytic index (SI) was calculated as the ratio between the EC50 in proliferating cells and the EC50 in senescent cells, extrapolated using GraphPad Prism 10 software.

In the case of `Cc1ccccc1-n1c(=O)n(Cc2ccccc2)c(=O)c2[nH]cnc21` [Compound K5, 1-benzyl-3-(2-methylphenyl)-7H-purine-2,6-dione], the EC50 by setting is: (WI38, Replicative/passages, read-out: EC50 senescent cells) 650 nM; (WI38, read-out: EC50 proliferating cells) greater than 500000 nM. Also, the “Senolytic evidence (no, partly/yes)” value (WI38, Replicative/passages) was “Yes”. The “Senolytic index (estimated)” value (WI38, SI = EC50 in proliferating cells/EC50 senescent cells) is greater than 770. In addition, for the setting “proliferating WI38 (PD29), 100 nM to 200 μM, 48 h”, the “toxicity in proliferating cells” value is on record as “no evident toxicity”.
